Legend:
Staphylococcus aureus [1] = assay: Antimicrobial activity against Staphylococcus aureus Smith diffuse infected in Wistar rat ureteral stent infection model containing 1 ug/ml drug-coated stent assessed as bacterial count in urine after 48 hrs; type: functional
Staphylococcus aureus [2] = assay: Antimicrobial activity against Staphylococcus aureus Smith diffuse infected in Wistar rat ureteral stent infection model; type: functional
Rattus norvegicus [3] = organism: Rattus norvegicus; assay: Toxicity in Staphylococcus aureus Smith diffuse infected Wistar rat containing 1 ug/ml drug-coated ureteral stent assessed as drug-related adverse effects; type: organism-based; conditions: in vivo, other
Staphylococcus aureus [4] = assay: Potentiation of teicoplanin-induced antimicrobial activity against Staphylococcus aureus Smith diffuse infected in Wistar rat ureteral stent infection model containing drug-coated stent assessed as bacterial count on stent after 48 hrs; type: functional
Rattus norvegicus [5] = assay: Toxicity in Staphylococcus aureus Smith diffuse infected Wistar rat containing 1 ug/ml drug-coated ureteral stent assessed as drug-related adverse effects in presence of 10 mg/kg, ip teicoplanin; type: organism-based; parameters: dose 10 mg/kg, route intraperitoneal; conditions: in vivo
Rattus norvegicus [6] = assay: Toxicity in Staphylococcus aureus Smith diffuse infected Wistar rat assessed as drug-related adverse effects at 10 mg/kg, ip; type: organism-based; parameters: dose 10 mg/kg, route intraperitoneal; conditions: in vivo
Staphylococcus aureus [7] = assay: Potentiation of teicoplanin-induced antimicrobial activity against Staphylococcus aureus Smith diffuse infected in Wistar rat ureteral stent infection model containing drug-coated stent assessed as bacterial count in urine after 48 hrs; type: functional
Rattus norvegicus [8] = organism: Rattus norvegicus; assay: Toxicity in Staphylococcus aureus Smith diffuse infected Wistar rat containing 1 ug/ml drug-coated ureteral stent assessed as mortality; type: organism-based; conditions: in vivo, other
Rattus norvegicus [9] = assay: Toxicity in Staphylococcus aureus Smith diffuse infected Wistar rat containing 1 ug/ml drug-coated ureteral stent assessed as mortality in presence of 10 mg/kg, ip teicoplanin; type: organism-based; parameters: dose 10 mg/kg, route intraperitoneal; conditions: in vivo
Staphylococcus aureus [10] = assay: Antimicrobial activity against Staphylococcus aureus Smith diffuse infected in Wistar rat ureteral stent infection model containing 1 ug/ml drug-coated stent assessed as bacterial count on ureteral stent after 48 hrs; type: functional
Rattus norvegicus [11] = assay: Toxicity in Staphylococcus aureus Smith diffuse infected Wistar rat assessed as mortality at 10 mg/kg, ip; type: organism-based; parameters: dose 10 mg/kg, route intraperitoneal; conditions: in vivo
Staphylococcus aureus [12] = assay: Antimicrobial activity against Staphylococcus aureus Smith diffuse infected in Wistar rat ureteral stent infection model assessed as bacterial count in urine at 10 mg/kg, ip after 48 hrs; type: functional; conditions: route intraperitoneal
Staphylococcus aureus [13] = assay: Antimicrobial activity against Staphylococcus aureus Smith diffuse infected in Wistar rat ureteral stent infection model assessed as bacterial count on ureteral stent at 10 mg/kg, ip after 48 hrs; type: functional; conditions: route intraperitoneal

Molecule | CFU (Staphylococcus aureus [1]) | MIC (Staphylococcus aureus [2]) | Activity (Rattus norvegicus [3]) | CFU (Staphylococcus aureus [4]) | Activity (Rattus norvegicus [5]) | Activity (Rattus norvegicus [6]) | CFU (Staphylococcus aureus [7]) | Activity (Rattus norvegicus [8]) | Activity (Rattus norvegicus [9]) | CFU (Staphylococcus aureus [10]) | Activity (Rattus norvegicus [11]) | CFU (Staphylococcus aureus [12]) | CFU (Staphylococcus aureus [13])
H-YSPWTNF-NH2 | 4 ×10⁴ /ml | 1 µg/mL | Non-toxic | <10 mL⁻¹ | Non-toxic | Non-toxic | <10 mL⁻¹ | Non-toxic | Non-toxic | 67 ×10³ /ml |  |  | 
CC(=O)N[C@@H]1[C@H](Oc2c3cc4cc2Oc2ccc(cc2Cl)[C@@H](O[C@@H]2O[C@@H](CO)[C@@H](O)[C@H](O)[C@@H]2NC(C)=O)[C@@H]2NC(=O)[C@H](NC(=O)[C@@H]4NC(=O)[C@H]4NC(=O)[C@@H](Cc5ccc(c(Cl)c5)O3)NC(=O)[C@H](N)c3ccc(O)c(c3)Oc3cc(O)cc4c3)c3ccc(O)c(c3)-c3c(O[C@H]4O[C@H](CO)[C@@H](O)[C@@H](O)[C@@H]4O)cc(O)cc3[C@@H](C(=O)O)NC2=O)O[C@@H](CO)[C@@H](O)[C@@H]1O |  |  | Non-toxic |  | Non-toxic | Non-toxic |  | Non-toxic | Non-toxic |  | Non-toxic | 2.9 ×10⁴ /ml | 3.8 ×10³ /ml

— ChEMBL document CHEMBL1151425, “RNAIII-inhibiting peptide affects biofilm formation in a rat model of staphylococcal ureteral stent infection” (Antimicrob Agents Chemother, 2007)
